Measured values: patent US20190070128A1, “USE OF CANNABIDIVARIN IN THE TREATMENT OF AUTISM SPECTRUM DISORDER, ASSOCIATED DISORDERS AND SCHIZOPHRENIA” (GW Research Limited, priority 2016, published 2019)

Key:
VPA-exposed rats [1] = test: sociability and preference for social novelty, 3-chamber apparatus, prenatal VPA model; format: in vivo, rat
Experimental: (§1) Pregnant Sprague-Dawley rats (Charles River, Calco, Italy), received a single intraperitoneal injection of 500 mg/kg sodium valproate on the 12.5 day after conception, and control females were injected with physiological saline at the same time. Sodium valproate (Sigma Aldrich, Milan, IT) was dissolved in saline at a concentration of 250 mg/ml.
CBDV was dissolved in ethanol, cremophor and saline (1:1:18). Symptomatic treatment with CBDV at doses of 0.2, 2, 20, and 100 mg/kg/day i.p. was performed starting from PND 34 (early adolescence) till 56 (early adulthood), both in male and female offspring of dams injected with VPA 500 mg/kg (or vehicle) on day 12.5 after conception. At PND 56, a series of behavioural tests was performed in order to assess the effect of chronic CBDV on sociability, social novelty, short-term memory, locomotion and stereotyped/repetitive behaviours.
Sociability and preference for social novelty: These behaviours were investigated in a 3-chamber apparatus which allows for the measurement of social approach and social preference. In brief, animals were placed into a novel arena (80 cm×31.5 cm) composed of three communicating chambers separated by Perspex walls with central openings allowing access to all chambers for 5 min.
Following this acclimatisation period, animals were briefly confined to the central chamber while an unfamiliar rat confined in a small wire cage was placed in one of the outer chambers. An identical empty wire cage was placed in the other chamber. The unfamiliar rat was randomly assigned to either the right or left chamber of the arena. The test animal was then allowed to explore the arena/chambers for a further 5 min. Time spent engaging in investigatory behaviour with the rat was evaluated with the aid of Anymaze program (Ugo Basile, Italy) in order to examine social approach.
To investigate the preference for social novelty, a novel unfamiliar rat was then placed in the empty cage and the test animal was then allowed to explore the arena/chambers for a further 5 min. Time spent engaging in investigatory behaviour with the novel unfamiliar rat was evaluated with the aid of Anymaze program (Ugo Basile, Italy) in order to examine preference for social novelty.

PCP-treated rats = test: novel object recognition test in sub-chronic PCP treated rats; format: in vivo, rat
Experimental: Female hooded-Lister rats were used for this experiment. Rats were housed in groups of 5 under standard laboratory conditions under a 12 hr light: dark cycle, lights on at 0700 hr. Testing was carried out in the light phase.
Rats were randomly assigned to two treatment groups and treated with vehicle, n=20 (distilled water, i.p.) or Phencyclidine hydrochloride (PCP), n=100 (2 mg/kg, i.p. twice daily for 7-days). PCP was dissolved in distilled water. This was followed by a 7-day wash out period before the rats were tested following acute treatment with CBDV, risperidone or vehicle.
Risperidone (0.1 mg/kg) was dissolved in a minimum volume of acetic acid, made up to volume with distilled water and pH adjusted to 6 with 0.1M NaOH and administered via the i.p. route in a volume of 1 ml/kg, 60 min prior to testing.
CBDV at 2, 10 or 20 mg/kg was dissolved in 2:1:17 (Ethanol:Cremofor:Saline 0.9%) and administered via the i.p. route in a volume of 5 ml/kg, 60 min prior to testing.
Rats were allowed to habituate to the empty test box and the behavioural test room environment for 1 h on day 1. Prior to behavioural testing on day 2 rats are given a further 3 min habituation.
Following the 3 min habituation period, the rats are given two 3 min trials (T1 and T2) which are separated by a 1 min inter-trial interval in the home cage during which the objects are changed. Behaviour in all trials was recorded on video for subsequent blind scoring.
In this trial, the animals are allowed to explore two identical objects (A1 and A2) for 3 min.
In this trial, the animals explore a familiar object (A) from T1 and a novel object (B) for 3 min. The familiar object presented during T2 is a duplicate of the object presented in T1 in order to avoid any olfactory trails.
The object exploration is defined by animals licking, sniffing or touching the object with the forepaws whilst sniffing, but not leaning against, turning around, standing or sitting on the object. The exploration time (s) of each object (A, B, familiar and novel) in each trial are recorded using two stopwatches and the following factors are calculated: • Total exploration time of both objects in the acquisition trial (s). • Total exploration time of both objects in the retention trial (s). • Habituation of exploratory activity includes the exploration time, as measured by the number of lines crossed, for both the trials. • Discrimination index (DI), which is calculated as shown below: […]

VPA-exposed rats [2] = test: short-term memory, novel object recognition test, prenatal VPA model; format: in vivo, rat
Experimental: as §1
CBDV was dissolved in ethanol, cremophor and saline (1:1:18). Symptomatic treatment with CBDV at doses of 0.2, 2, 20, and 100 mg/kg/day i.p. was performed starting from PND 34 (early adolescence) till 56 (early adulthood), both in male and female offspring of dams injected with VPA 500 mg/kg (or vehicle) on day 12.5 after conception. […]
Short-term memory: The experimental apparatus used for the object recognition test was an open-field box (43×43×32 cm) made of Plexiglas, placed in a dimly illuminated room. The experiment was performed and analysed as previously described (Zamberletti et al, 2014). […]
Each animal was placed in the arena and allowed to explore two identical previously unseen objects for 5 minutes (familiarization phase). […] During the test phase the time spent exploring the familiar object (Ef) and the new object (En) was videotaped and recorded separately by two observers blind to the treatment groups and the discrimination index was calculated as follows: [(En−Ef)/(En+Ef)]×100.

hCB1 [3] = target: T1, hCB1 (Homo sapiens, UniProt P21554); set-up: expressed in transfected cells; host or cells: CHO cells expressing hCB1 (membranes); details: hCB1-CHO cell membranes; extract compared with purified CBDV; cited from earlier work
Ube3am-/p+ (AS) mice = test: tail suspension test in Angelman syndrome mice; format: in vivo, mouse; details: 20 mg/kg i.p., vs AS vehicle
Experimental: Heterozygous mice with maternal deficiency of Ube3A (Ube3am−/p+) and wild type (Ube3am+/p+) were purchased from The Jackson Laboratory (Jackson code: B6.12957-Ube3a tm1Alb/J) and maintained in a C57BL/6 background.
Drugs were dissolved in 1:1:18 ethanol:cremophor:0.9% saline, for intraperitoneal (i.p.) administration. Drug treatment was performed daily for 35 days. CBDV was administered at 20 mg/kg.
Tail suspension: The tail suspension test assesses depressive-like behaviour in mice. Mice were individually suspended by the tail on a horizontal bar (50 cm from floor) using adhesive tape placed approximately 4 cm from the tip of the tail. The duration of immobility was recorded in seconds over a period of 6 minutes by a time recorder. Immobility time was defined as the absence of escape-oriented behaviour.

hCB1 [4] = target: T1, hCB1; details: cited from earlier work

T1 sequence (P21554 whole entry): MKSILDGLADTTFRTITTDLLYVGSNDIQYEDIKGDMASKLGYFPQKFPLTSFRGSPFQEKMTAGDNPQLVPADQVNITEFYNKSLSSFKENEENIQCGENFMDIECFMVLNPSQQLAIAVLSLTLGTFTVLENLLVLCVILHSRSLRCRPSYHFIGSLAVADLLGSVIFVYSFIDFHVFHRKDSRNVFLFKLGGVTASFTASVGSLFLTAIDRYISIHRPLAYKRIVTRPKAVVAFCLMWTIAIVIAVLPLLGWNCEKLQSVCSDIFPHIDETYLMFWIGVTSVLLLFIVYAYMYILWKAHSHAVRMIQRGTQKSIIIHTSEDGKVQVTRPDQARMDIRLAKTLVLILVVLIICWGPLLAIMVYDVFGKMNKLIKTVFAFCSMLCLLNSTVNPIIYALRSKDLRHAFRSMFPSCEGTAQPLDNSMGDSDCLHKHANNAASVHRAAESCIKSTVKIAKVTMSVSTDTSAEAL

**Q.** What does the source list for `C=C(C)[C@@H]1CCC(C)=C[C@H]1c1c(O)cc(CCC)cc1O` [CBDV, Cannabidivarin]?
**A.** deficit in social preference (VPA-exposed rats [1]; 20 mg/kg and 100 mg/kg): reversed; restoration of social novelty preference (VPA-exposed rats [1]; 20 mg/kg/day i.p. PND 34-56, p<0.001 in males, p<0.01 in females): statistically significant effect; reduction of preference index in VPA-CBDV animals compared to controls (VPA-exposed rats [1]; VPA alone about 48%): about 13%; impairment in sociability (VPA-exposed rats [1]; all doses (0.2, 2, 20, 100 mg/kg/day i.p.)): significantly reduced; discrimination index (DI) (PCP-treated rats; PCP rats, 10 and 20 mg/kg): statistically significant increase; preference between two identical objects, Trial 1 (acquisition) (PCP-treated rats; PCP rats, CBDV 2, 10 or 20 mg/kg i.p., risperidone 0.1 mg/kg i.p., 60 min prior to testing): no real preference; cognitive dysfunction (discrimination between familiar and novel objects, Trial 2) (PCP-treated rats; PCP treated rats, CBDV 10 and 20 mg/kg i.p.): reverse; short-term memory deficit (discrimination index) (VPA-exposed rats [2]; male and female VPA rats, 2, 20 and 100 mg/kg): completely and significantly reversed; recognition memory per se (VPA-exposed rats [2]; vehicle-treated (non VPA) rats): without affecting; affinity for CB1 cannabinoid receptors (hCB1 [3]): neither bound with high enough affinity; duration of immobility time (Ube3am-/p+ (AS) mice): significantly reduced; affinity for the CB1 receptor (hCB1 [4]): low affinity
